Measured values from article PMC3397428 (Bioorganic & medicinal chemistry, 2012).
“Also recorded” adds a separate entry of the source.

Tests used:
[1] = target: T1, PfDHODH (Plasmodium falciparum, UniProt Q08210); assay: DHODH inhibition, Plasmodium falciparum; assay type: biochemical
T1 sequence (Q08210 24-569): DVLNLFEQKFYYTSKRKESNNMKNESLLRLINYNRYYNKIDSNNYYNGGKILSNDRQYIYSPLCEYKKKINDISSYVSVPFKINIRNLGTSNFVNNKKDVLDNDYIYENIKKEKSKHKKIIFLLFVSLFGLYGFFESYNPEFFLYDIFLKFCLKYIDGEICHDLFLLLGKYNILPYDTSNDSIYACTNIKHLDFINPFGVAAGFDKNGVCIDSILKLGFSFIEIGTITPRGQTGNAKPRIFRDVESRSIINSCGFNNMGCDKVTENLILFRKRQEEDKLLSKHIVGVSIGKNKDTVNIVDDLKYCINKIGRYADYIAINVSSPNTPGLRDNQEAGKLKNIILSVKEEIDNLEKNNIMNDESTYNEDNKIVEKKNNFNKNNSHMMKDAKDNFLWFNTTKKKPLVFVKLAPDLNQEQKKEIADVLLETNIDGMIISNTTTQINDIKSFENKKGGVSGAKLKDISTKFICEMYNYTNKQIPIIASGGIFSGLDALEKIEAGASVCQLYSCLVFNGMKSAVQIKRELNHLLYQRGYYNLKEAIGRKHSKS

[2] = Dose-finding study in athymic mice; details: 35 mg/kg three times weekly for 4 weeks
[3] = system: B16-F10 mouse melanoma tumor cells; assay: B16-F10 syngeneic mouse melanoma model; assay type: in vivo; details: athymic mice, 35 mg/kg IP 3 × weekly (M, W, F) for two weeks

SMILES	IC50 [1] [µM]	loss in weight in dose-finding study [2]	toxicity in dose-finding study [2]	growth rate of primary B16-F10 tumor [3]
Nc1nc2c(c(Nc3ccccc3)n1)-c1ccccc1C2 [Compound 1, N^4-Phenyl-9H-indeno[2,1-d]pyrimidine-2,4-diamine]	≥ 200			
Nc1nc2c(c(Nc3cccc(F)c3)n1)-c1ccccc1C2 [Compound 4, N^4-(3-Fluorophenyl)-9H-indeno[2,1-d]pyrimidine-2,4-diamine]	≥ 200			
Nc1nc2c(c(Nc3ccc(Cl)cc3)n1)-c1ccccc1C2 [Compound 7, N^4-(4-Chlorophenyl)-9H-indeno[2,1-d]pyrimidine-2,4-diamine]	≥ 200	no significant loss in weight	no apparent toxicity	equipotent with the standard 21; also recorded: decreased tumor growth rate
Nc1nc2c(c(Nc3cccc(Br)c3)n1)-c1ccccc1C2 [Compound 8, N^4-(3-Bromophenyl)-9H-indeno[2,1-d]pyrimidine-2,4-diamine]	≥ 200			
COc1cccc(Nc2nc(N)nc3c2-c2ccccc2C3)c1 [Compound 11, N^4-(3-Methoxyphenyl)-9H-indeno[2,1-d]pyrimidine-2,4-diamine]	≥ 200			
Nc1nc2c(c(Nc3ccc(Cl)cc3F)n1)-c1ccccc1C2 [Compound 13, N^4-(4-Chloro-2-fluorophenyl)-9H-indeno[2,1-d]pyrimidine-2,4-diamine]	≥ 200			
